Measurements published in patent US20240409585A1, “MACROCYCLIC IMMUNOMODULATORS” (priority 2021, published 2024).
Numbered stars: 1 amine (or outer) side, 2 acyl side, 3 side chain; on linkers, the order of the positions; unused ones are H or OH. Bridge positions count the residues as written; N and C are the ends. Square brackets hold non-standard residues; d marks the D form. Peptide text beside a SMILES is read from it. * marks the point of attachment. ξ: configuration not given here. X47 = O=C([C@H](Cc1ccc(-c2cccc(OC(F)(F)F)c2)cc1)N[*:1])[*:2]; Tyr(3-NO2) = N[C@@H](Cc1ccc(O)c([N+](=O)[O-])c1)C(=O)O; X30 = CCOc1cccc(-c2ccc(C[C@H](N[*:1])C(=O)[*:2])cc2)c1; Phe(4-(3-Py)) = N[C@@H](Cc1ccc(-c2cccnc2)cc1)C(=O)O; Phe(4-CONH2) = NC(=O)c1ccc(C[C@H](N)C(=O)O)cc1; Phe(4-COOH) = N[C@@H](Cc1ccc(C(=O)O)cc1)C(=O)O; Bip = N[C@@H](Cc1ccc(-c2ccccc2)cc1)C(=O)O; Phe(3-Me) = Cc1cccc(C[C@H](N)C(=O)O)c1; Val(3-OH) = CC(C)(O)[C@H](N)C(=O)O; 3Pal = N[C@@H](Cc1cccnc1)C(=O)O; 4Pal = N[C@@H](Cc1ccncc1)C(=O)O; 2Thi = N[C@@H](Cc1cccs1)C(=O)O; Cha = N[C@@H](CC1CCCCC1)C(=O)O; Cit = NC(=O)NCCC[C@H](N)C(=O)O; Thr(3ξ) = CC(O)[C@H](N)C(=O)O; Carboxymethyl = O=C(O)C*; NMeA = CN[C@@H](C)C(=O)O; Orn = NCCC[C@H](N)C(=O)O; Dab = NCC[C@H](N)C(=O)O

These compounds were tested against T1, PE-labeled human PD-L1-Ig binding to Jurkat cell line over-expressing human PD-1 (Jurkat-PD-1) (Homo sapiens, UniProt Q15116) (assay: Jurkat-PD-1 Cell Binding High-Content Screening Assay (CBA): Method 1). Conditions: Jurkat-hPD-1 cells, PE-labeled PD-L1-Ig 20 nM final; read-out: Jurkat HPDL1 PD1 IC50 (uM) (Method 1).
T1 construct: expressed in transfected cells; host or cells: Jurkat
T1 sequence (Q15116 25-288): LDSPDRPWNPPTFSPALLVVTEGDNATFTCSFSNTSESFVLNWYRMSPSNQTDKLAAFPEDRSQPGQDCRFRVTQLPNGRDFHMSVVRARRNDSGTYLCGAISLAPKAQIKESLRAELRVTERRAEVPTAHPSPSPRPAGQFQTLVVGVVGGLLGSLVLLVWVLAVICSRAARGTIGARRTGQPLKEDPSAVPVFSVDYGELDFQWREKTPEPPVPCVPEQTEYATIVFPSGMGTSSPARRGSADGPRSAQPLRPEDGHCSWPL
Compound CC(C)C[C@@H]1NC(=O)[C@H](Cc2c[nH]c3ccccc23)NC(=O)[C@H](CC(=O)O)NC(=O)[C@H](Cc2ccc(C(N)=O)cc2)NC(=O)[C@H](Cc2ccccc2)NC(=O)CSC[C@@H](C(=O)N[C@@H](C)C(N)=O)NC(=O)[C@H](CO)NC(=O)[C@H](C(C)C)NC(=O)[C@H](CC(C)C)NC(=O)[C@H](CC(N)=O)NC(=O)[C@@H](C)NC(=O)[C@H](C)N(C)C(=O)[C@H](C(C)C)NC(=O)[C@H](Cc2ccc(-c3ccccc3)cc2)NC1=O [Compound 1740] ({CH2CO}-F[Phe(4-CONH2)]DWL[Bip]V[NMeA][dA]NLVSCA-NH2; thioether N-14) has an IC50 of 0.02 µM. With Cc1cccc(C[C@@H]2NC(=O)[C@H](CC(=O)O)NC(=O)[C@H](Cc3ccc(C(=O)O)cc3)NC(=O)[C@H](Cc3ccncc3)NC(=O)CSC[C@@H](C(N)=O)NC(=O)[C@H]([C@@H](C)O)NC(=O)[C@H](C(C)C)NC(=O)[C@H](CC(C)C)NC(=O)[C@H](CCN)NC(=O)[C@@H](CC(C)C)NC(=O)[C@H](C)N(C)C(=O)[C@H](CCCNC(N)=O)NC(=O)[C@H](Cc3ccc(-c4ccccc4)cc3)NC(=O)[C@H](C(C)C)NC2=O)c1 [Compound 1898] ({CH2CO}-[4Pal][Phe(4-COOH)]D[Phe(3-Me)]V[Bip][Cit][NMeA][dL][Dab]LVTC-NH2; thioether N-14) the IC50 was 0.07 µM. Compound CCOc1cccc(-c2ccc(C[C@@H]3NC(=O)[C@H](C(C)C)NC(=O)[C@H](Cc4c[nH]c5ccccc45)NC(=O)[C@H](CC(=O)O)NC(=O)[C@H](Cc4ccc(O)cc4)NC(=O)[C@H](CC(N)=O)NC(=O)CSC[C@@H](C(=O)N[C@@H](C)C(N)=O)NC(=O)[C@H]([C@@H](C)O)NC(=O)[C@H](C(C)C)NC(=O)[C@H](CC(C)C)NC(=O)[C@H](CCN)NC(=O)[C@@H](CC(C)C)NC(=O)[C@H](C)N(C)C(=O)[C@H](CCCNC(=N)N)NC3=O)cc2)c1 [Compound 1221] ({CH2CO}-NYDWV[X30]R[NMeA][dL][Dab]LVTCA-NH2; thioether N-14) has an IC50 of 0.22 µM. In the case of Cc1cccc(C[C@@H]2NC(=O)[C@H](CC(=O)O)NC(=O)[C@H](Cc3ccc(OCC(=O)O)cc3)NC(=O)[C@H](Cc3ccncc3)NC(=O)CSC[C@@H](C(=O)N[C@@H](CCN)C(N)=O)NC(=O)[C@H](CCC(=O)O)NC(=O)[C@H](C(C)(C)O)NC(=O)[C@H](CC3CCCCC3)NC(=O)[C@H](CCN)NC(=O)[C@@H](CC(C)C)NC(=O)[C@H](C)N(C)C(=O)[C@H](Cc3ccc(C(=O)O)cc3)NC(=O)[C@H](Cc3ccc(-c4ccccc4)cc3)NC(=O)[C@H](Cc3ccc(C(=O)O)cc3)NC2=O)c1 [Compound 2196] ({CH2CO}-[4Pal]Y(Carboxymethyl)D[Phe(3-Me)][Phe(4-COOH)][Bip][Phe(4-COOH)][NMeA][dL][Dab][Cha][Val(3-OH)]EC[Dab]-NH2; thioether N-14), the IC50 is reported as 0.02 µM. Compound CC(C)C[C@@H]1NC(=O)[C@H](Cc2c[nH]c3ccccc23)NC(=O)[C@H](CC(=O)O)NC(=O)[C@H](Cc2ccc(O)c([N+](=O)[O-])c2)NC(=O)[C@H](Cc2ccccc2)NC(=O)CSC[C@@H](C(=O)N[C@@H](C)C(N)=O)NC(=O)[C@H](CO)NC(=O)[C@H](C(C)C)NC(=O)[C@H](CC(C)C)NC(=O)[C@H](CC(N)=O)NC(=O)[C@@H](C)NC(=O)[C@H](C)N(C)C(=O)[C@H](C(C)C)NC(=O)[C@H](Cc2ccc(-c3ccccc3)cc2)NC1=O [Compound 1738] ({CH2CO}-F[Tyr(3-NO2)]DWL[Bip]V[NMeA][dA]NLVSCA-NH2; thioether N-14) has an IC50 of 0.02 µM. CC(C)C[C@@H]1NC(=O)[C@H](CCCNC(=N)N)NC(=O)[C@@H](CC(N)=O)NC(=O)[C@H](C)N(C)C(=O)[C@H](CCCNC(=N)N)NC(=O)[C@H](Cc2ccc(-c3ccccc3)cc2)NC(=O)[C@H](C(C)C)NC(=O)[C@H](Cc2c[nH]c3ccccc23)NC(=O)[C@H](CC(=O)O)NC(=O)[C@H](Cc2ccc(O)cc2)NC(=O)[C@H](Cc2ccccc2)NC(=O)CSC[C@@H](C(=O)NCC(N)=O)NC(=O)[C@H](CO)NC(=O)[C@H](C(C)C)NC1=O [Compound 1019] ({CH2CO}-FYDWV[Bip]R[NMeA][dN]RLVSCG-NH2; thioether N-14) showed an IC50 of 0.36 µM. For CC(C)C[C@@H]1NC(=O)[C@H](CCCNC(=N)N)NC(=O)[C@@H](CC(C)C)NC(=O)[C@H](C)N(C)C(=O)[C@H](CCCNC(=N)N)NC(=O)[C@H](Cc2ccc(-c3cccnc3)cc2)NC(=O)[C@H](C(C)C)NC(=O)[C@H](Cc2c[nH]c3ccccc23)NC(=O)[C@H](CC(=O)O)NC(=O)[C@H](Cc2ccc(O)cc2)NC(=O)[C@H](Cc2ccccc2)NC(=O)CSC[C@@H](C(=O)N[C@@H](C)C(N)=O)NC(=O)[C@H]([C@@H](C)O)NC(=O)[C@H](C(C)C)NC1=O [Compound 1096] ({CH2CO}-FYDWV[Phe(4-(3-Py))]R[NMeA][dL]RLVTCA-NH2; thioether N-14), the IC50 was 0.29 µM. Compound Cc1cccc(C[C@@H]2NC(=O)[C@H](CC(=O)O)NC(=O)[C@H](Cc3ccc(OCC(=O)O)cc3)NC(=O)[C@H](C(C)O)NC(=O)CSC[C@@H](C(=O)N[C@@H](CCN)C(N)=O)NC(=O)[C@H](C(C)O)NC(=O)[C@H](C(C)C)NC(=O)[C@H](CC3CCCCC3)NC(=O)[C@H](CCN)NC(=O)[C@@H](CC(C)C)NC(=O)[C@H](C)N(C)C(=O)[C@H](Cc3ccc(OCC(=O)O)cc3)NC(=O)[C@H](Cc3ccc(-c4ccccc4)cc3)NC(=O)[C@H](Cc3ccc(C(=O)O)cc3)NC2=O)c1 (stereo partly drawn) [Compound 2115] ({CH2CO}-[Thr(3ξ)]Y(Carboxymethyl)D[Phe(3-Me)][Phe(4-COOH)][Bip]Y(Carboxymethyl)[NMeA][dL][Dab][Cha]V[Thr(3ξ)]C[Dab]-NH2; thioether N-14) has an IC50 of 0.01 µM. CC(C)C[C@@H]1NC(=O)[C@H](Cc2c[nH]c3ccccc23)NC(=O)[C@H](CC(=O)O)NC(=O)[C@H](Cc2ccc(O)cc2)NC(=O)[C@H](Cc2ccccc2)NC(=O)CSC[C@@H](C(=O)NCC(N)=O)NC(=O)[C@H](CO)NC(=O)[C@H](C(C)C)NC(=O)[C@H](CC(C)C)NC(=O)[C@H](CC(=O)O)NC(=O)[C@@H](CC(=O)O)NC(=O)[C@H](C)N(C)C(=O)[C@H](C(C)C)NC(=O)[C@H](Cc2ccc(-c3ccccc3)cc2)NC1=O [Compound 1829] ({CH2CO}-FYDWL[Bip]V[NMeA][dD]DLVSCG-NH2; thioether N-14) was tested, and the IC50 was 0.85 µM. Compound CC(C)C[C@H]1NC(=O)[C@H](C)N(C)C(=O)[C@H](CCC(=O)O)NC(=O)[C@H](Cc2ccc(-c3ccccc3)cc2)NC(=O)[C@H](C(C)C)NC(=O)[C@H](Cc2c[nH]c3ccccc23)NC(=O)[C@H](CC(N)=O)NC(=O)[C@H](Cc2ccc(O)cc2)NC(=O)[C@H](Cc2ccncc2)NC(=O)CSC[C@@H](C(=O)N[C@@H](C)C(N)=O)NC(=O)[C@H](C(C)O)NC(=O)[C@H](C(C)C)NC(=O)[C@H](CC2CCCCC2)NC(=O)[C@H](CCN)NC1=O (stereo partly drawn) [Compound 2088] ({CH2CO}-[4Pal]YNWV[Bip]E[NMeA][dL][Dab][Cha]V[Thr(3ξ)]CA-NH2; thioether N-14) has an IC50 of 0.17 µM. In the case of CC(C)C[C@@H]1NC(=O)[C@H](Cc2c[nH]c3ccccc23)NC(=O)[C@H](CC(=O)O)NC(=O)[C@H](Cc2ccc(C(=O)O)cc2)NC(=O)[C@H](Cc2cccnc2)NC(=O)CSC[C@@H](C(=O)N[C@@H](C)C(N)=O)NC(=O)[C@H](CO)NC(=O)[C@H](C(C)C)NC(=O)[C@H](CC(C)C)NC(=O)[C@H](CC(N)=O)NC(=O)[C@@H](C)NC(=O)[C@H](C)N(C)C(=O)[C@H](C(C)C)NC(=O)[C@H](Cc2ccc(-c3ccccc3)cc2)NC1=O [Compound 1747] ({CH2CO}-[3Pal][Phe(4-COOH)]DWL[Bip]V[NMeA][dA]NLVSCA-NH2; thioether N-14), the IC50 is reported as 0.02 µM. Work on CC(C)C[C@@H]1NC(=O)[C@H](Cc2c[nH]c3ccccc23)NC(=O)[C@H](CC(=O)O)NC(=O)[C@H](Cc2ccncc2)NC(=O)[C@H](Cc2ccc(OCC(=O)O)cc2)NC(=O)CSC[C@@H](C(=O)N[C@@H](C)C(N)=O)NC(=O)[C@H](CO)NC(=O)[C@H](C(C)C)NC(=O)[C@H](CC(C)C)NC(=O)[C@H](CC(N)=O)NC(=O)[C@@H](C)NC(=O)[C@H](C)N(C)C(=O)[C@H](C(C)C)NC(=O)[C@H](Cc2ccc(-c3ccccc3)cc2)NC1=O [Compound 1564] ({CH2CO}-Y(Carboxymethyl)[4Pal]DWL[Bip]V[NMeA][dA]NLVSCA-NH2; thioether N-14) yielded an IC50 of 0.01 µM. CC(C)C[C@@H]1NC(=O)[C@H](CCN)NC(=O)[C@@H](CC(C)C)NC(=O)[C@H](C)N(C)C(=O)[C@H](CCCNC(=N)N)NC(=O)[C@H](Cc2ccc(-c3cccc(OC(F)(F)F)c3)cc2)NC(=O)[C@H](C(C)C)NC(=O)[C@H](Cc2c[nH]c3ccccc23)NC(=O)[C@H](CC(=O)O)NC(=O)[C@H](Cc2ccc(O)cc2)NC(=O)[C@H](CC(N)=O)NC(=O)CSC[C@@H](C(=O)N[C@@H](C)C(N)=O)NC(=O)[C@H]([C@@H](C)O)NC(=O)[C@H](C(C)C)NC1=O [Compound 1228] ({CH2CO}-NYDWV[X47]R[NMeA][dL][Dab]LVTCA-NH2; thioether N-14) gave an IC50 of 0.9 µM. For CC(C)C[C@@H]1NC(=O)[C@H](CCCN)NC(=O)[C@@H](CC(C)C)NC(=O)[C@H](C)N(C)C(=O)[C@H](CCCNC(=N)N)NC(=O)[C@H](Cc2ccc(-c3ccccc3)cc2)NC(=O)[C@H](C(C)C)NC(=O)[C@H](Cc2c[nH]c3ccccc23)NC(=O)[C@H](CC(=O)O)NC(=O)[C@H](Cc2ccc(OCC(=O)O)cc2)NC(=O)[C@H](Cc2ccccc2)NC(=O)CSC[C@@H](C(=O)N[C@@H](C)C(N)=O)NC(=O)[C@H]([C@@H](C)O)NC(=O)[C@H](C(C)C)NC1=O [Compound 1140] ({CH2CO}-FY(Carboxymethyl)DWV[Bip]R[NMeA][dL][Orn]LVTCA-NH2; thioether N-14), the IC50 was 0.03 µM. With CC(C)C[C@@H]1NC(=O)[C@H](CCN)NC(=O)[C@@H](CC(C)C)NC(=O)[C@H](C)N(C)C(=O)[C@H](CCCNC(=N)N)NC(=O)[C@H](Cc2ccc(-c3ccccc3)cc2)NC(=O)[C@H](C(C)C)NC(=O)[C@H](Cc2cccs2)NC(=O)[C@H](CC(=O)O)NC(=O)[C@H](Cc2ccc(O)cc2)NC(=O)[C@H](CC(N)=O)NC(=O)CSC[C@@H](C(=O)N[C@@H](C)C(N)=O)NC(=O)[C@H]([C@@H](C)O)NC(=O)[C@H](C(C)C)NC1=O [Compound 1219] ({CH2CO}-NYD[2Thi]V[Bip]R[NMeA][dL][Dab]LVTCA-NH2; thioether N-14) the IC50 was 0.26 µM.
